Experimental data reported in the supplement of paper PMC10883282.
± gives the standard deviation of the averaged measurements.

What was measured:
Assay in all cases: relative viability vs DMSO control (72 h) (fraction); higher = more viable cells
MES-SA = system: MES-SA
Method in brief: (§1)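 Sarcoma cell lines went into 384-well plates at densities chosen to reach 80–90% confluence. After 24 h, each well received 2.5 µl of serially diluted compound, with source plates running from 10 mM to 0.0002 mM, and the plates were kept 72 h at 37 °C, 5% CO2, alongside 0.1% DMSO vehicle and a 5 µM positive control. Relative viability was derived from ATPLite readings as percent growth and averaged over up to triplicate wells. The data were then rescaled so that 1 stands for full and 0 for none.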

SK-LMS-1 = system: SK-LMS-1
Method in brief: as §1

SK-ES-1 = system: SK-ES-1
Method in brief: as §1

SYO-1 = system: SYO-1
Method in brief: as §1

SW1353 = system: SW1353
Method in brief: as §1

RD-ES = system: RD-ES
Method in brief: as §1

VA-ES-BJ = system: VA-ES-BJ
Method in brief: as §1

HT1080 = system: HT1080
Method in brief: as §1

RD = system: RD
Method in brief: as §1

KHOS-240S = system: KHOS-240S
Method in brief: as §1

SW982 = system: SW982
Method in brief: as §1

G401 = system: G401
Method in brief: as §1

C[C@H](Nc1ncnc2nc[nH]c12)c1cc2cccc(Cl)c2c(=O)n1-c1ccccc1 [Duvelisib]
Settings	relative viability
G401, 0.00017 µM	1.07 ± 0.013
G401, 0.00051 µM	1.03 ± 0.022
G401, 0.00152 µM	1.05 ± 0.019
G401, 0.00457 µM	1.017 ± 0.0084
G401, 0.01372 µM	0.987 ± 0.023
G401, 0.04115 µM	0.983 ± 0.033
G401, 0.1235 µM	0.966 ± 0.03
G401, 0.3704 µM	0.9339 ± 0.0075
G401, 1.111 µM	0.862 ± 0.027
G401, 3.333 µM	0.763 ± 0.018
G401, 10 µM	0.593 ± 0.018
HT1080, 0.00017 µM	1.11 ± 0.025
HT1080, 0.00051 µM	1.14 ± 0.043
HT1080, 0.00152 µM	1.13 ± 0.019
HT1080, 0.00457 µM	1.126 ± 0.0042
HT1080, 0.01372 µM	1.08 ± 0.072
HT1080, 0.04115 µM	1.14 ± 0.043
HT1080, 0.1235 µM	1.124 ± 0.0096
HT1080, 0.3704 µM	1.138 ± 0.01
HT1080, 1.111 µM	1.147 ± 0.0097
HT1080, 3.333 µM	1.13 ± 0.025
HT1080, 10 µM	1.07 ± 0.037
KHOS-240S, 0.00017 µM	1.05 ± 0.058
KHOS-240S, 0.00051 µM	1.11 ± 0.088
KHOS-240S, 0.00152 µM	1.08 ± 0.06
KHOS-240S, 0.00457 µM	1.09 ± 0.078
KHOS-240S, 0.01372 µM	1.06 ± 0.041
KHOS-240S, 0.04115 µM	1.04 ± 0.028
KHOS-240S, 0.1235 µM	1.05 ± 0.025
KHOS-240S, 0.3704 µM	1.02 ± 0.037
KHOS-240S, 1.111 µM	0.952 ± 0.054
KHOS-240S, 3.333 µM	0.9 ± 0.051
KHOS-240S, 10 µM	0.777 ± 0.017
MES-SA, 0.00017 µM	0.98 ± 0.036
MES-SA, 0.00051 µM	0.961 ± 0.019
MES-SA, 0.00152 µM	0.964 ± 0.017
MES-SA, 0.00457 µM	0.944 ± 0.041
MES-SA, 0.01372 µM	0.906 ± 0.043
MES-SA, 0.04115 µM	0.9422 ± 0.0037
MES-SA, 0.1235 µM	0.923 ± 0.073
MES-SA, 0.3704 µM	0.849 ± 0.045
MES-SA, 1.111 µM	0.77 ± 0.0065
MES-SA, 3.333 µM	0.631 ± 0.016
MES-SA, 10 µM	0.453 ± 0.019
RD, 0.00017 µM	1.08 ± 0.037
RD, 0.00051 µM	1.1 ± 0.031
RD, 0.00152 µM	1.13 ± 0.043
RD, 0.00457 µM	1.11 ± 0.041
RD, 0.01372 µM	1.12 ± 0.046
RD, 0.04115 µM	1.11 ± 0.034
RD, 0.1235 µM	1.08 ± 0.044
RD, 0.3704 µM	1.07 ± 0.045
RD, 1.111 µM	0.994 ± 0.011
RD, 3.333 µM	0.84 ± 0.03
RD, 10 µM	0.619 ± 0.013
RD-ES, 0.00017 µM	0.991 ± 0.012
RD-ES, 0.00051 µM	1.01 ± 0.026
RD-ES, 0.00152 µM	1.04 ± 0.032
RD-ES, 0.00457 µM	1.04 ± 0.022
RD-ES, 0.01372 µM	1.02 ± 0.014
RD-ES, 0.04115 µM	0.996 ± 0.016
RD-ES, 0.1235 µM	0.956 ± 0.029
RD-ES, 0.3704 µM	0.932 ± 0.031
RD-ES, 1.111 µM	0.845 ± 0.046
RD-ES, 3.333 µM	0.726 ± 0.05
RD-ES, 10 µM	0.551 ± 0.011
SK-ES-1, 0.00017 µM	1.09 ± 0.042
SK-ES-1, 0.00051 µM	1.07 ± 0.056
SK-ES-1, 0.00152 µM	1.06 ± 0.071
SK-ES-1, 0.00457 µM	1.05 ± 0.059
SK-ES-1, 0.01372 µM	1.02 ± 0.066
SK-ES-1, 0.04115 µM	0.968 ± 0.069
SK-ES-1, 0.1235 µM	0.99 ± 0.06
SK-ES-1, 0.3704 µM	0.96 ± 0.026
SK-ES-1, 1.111 µM	0.8914 ± 0.0054
SK-ES-1, 3.333 µM	0.768 ± 0.035
SK-ES-1, 10 µM	0.564 ± 0.019
SK-LMS-1, 0.00017 µM	1.05 ± 0.032
SK-LMS-1, 0.00051 µM	1.04 ± 0.07
SK-LMS-1, 0.00152 µM	1.08 ± 0.043
SK-LMS-1, 0.00457 µM	1.05 ± 0.018
SK-LMS-1, 0.01372 µM	1.03 ± 0.046
SK-LMS-1, 0.04115 µM	0.9363 ± 0.0039
SK-LMS-1, 0.1235 µM	0.91 ± 0.017
SK-LMS-1, 0.3704 µM	0.811 ± 0.041
SK-LMS-1, 1.111 µM	0.688 ± 0.014
SK-LMS-1, 3.333 µM	0.572 ± 0.025
SK-LMS-1, 10 µM	0.438 ± 0.018
SW982, 0.00017 µM	1.04 ± 0.012
SW982, 0.00051 µM	1.08 ± 0.022
SW982, 0.00152 µM	1.09 ± 0.029
SW982, 0.00457 µM	1.06 ± 0.031
SW982, 0.01372 µM	1.08 ± 0.041
SW982, 0.04115 µM	1.04 ± 0.029
SW982, 0.1235 µM	1 ± 0.041
SW982, 0.3704 µM	0.952 ± 0.026
SW982, 1.111 µM	0.891 ± 0.073
SW982, 3.333 µM	0.771 ± 0.013
SW982, 10 µM	0.623 ± 0.034
SW1353, 0.00017 µM	1.074 ± 0.0076
SW1353, 0.00051 µM	1.06 ± 0.025
SW1353, 0.00152 µM	1.03 ± 0.029
SW1353, 0.00457 µM	1.02 ± 0.034
SW1353, 0.01372 µM	1.02 ± 0.025
SW1353, 0.04115 µM	0.996 ± 0.013
SW1353, 0.1235 µM	0.915 ± 0.012
SW1353, 0.3704 µM	0.885 ± 0.043
SW1353, 1.111 µM	0.786 ± 0.042
SW1353, 3.333 µM	0.761 ± 0.034
SW1353, 10 µM	0.614 ± 0.084
SYO-1, 0.00017 µM	1.03 ± 0.015
SYO-1, 0.00051 µM	1.01 ± 0.021
SYO-1, 0.00152 µM	0.994 ± 0.026
SYO-1, 0.00457 µM	0.995 ± 0.035
SYO-1, 0.01372 µM	0.9906 ± 0.0096
SYO-1, 0.04115 µM	1.01 ± 0.039
SYO-1, 0.1235 µM	0.925 ± 0.071
SYO-1, 0.3704 µM	0.911 ± 0.092
SYO-1, 1.111 µM	0.841 ± 0.053
SYO-1, 3.333 µM	0.797 ± 0.079
SYO-1, 10 µM	0.688 ± 0.042
VA-ES-BJ, 0.00017 µM	1.09 ± 0.05
VA-ES-BJ, 0.00051 µM	1.1 ± 0.051
VA-ES-BJ, 0.00152 µM	1.09 ± 0.027
VA-ES-BJ, 0.00457 µM	1.1 ± 0.017
VA-ES-BJ, 0.01372 µM	1.08 ± 0.04
VA-ES-BJ, 0.04115 µM	1.06 ± 0.029
VA-ES-BJ, 0.1235 µM	1.01 ± 0.018
VA-ES-BJ, 0.3704 µM	0.941 ± 0.032
VA-ES-BJ, 1.111 µM	0.834 ± 0.027
VA-ES-BJ, 3.333 µM	0.688 ± 0.051
VA-ES-BJ, 10 µM	0.48 ± 0.036
